Each structure is given as a SMILES string. Bridge positions count the residues as written; N and C are the ends. Peptide text beside a SMILES is read from it.

The series can be described thus: Cytotoxicity against Spodoptera frugiperda Sf9 cells assessed as inhibition of cell viability incubated for 24 hrs by resazurin assay. Type of series: toxicity, cell-based. (The colour change of resazurin is a common sign of viable cells or microbes.)
The term CC50 denotes the concentration giving 50% cytotoxicity. With `CC(C)C[C@@H]1NC(=O)CNC(=O)[C@H](CC(N)=O)NC(=O)[C@H](CCCNC(=N)N)NC(=O)[C@H]([C@@H](C)O)NC(=O)[C@@H]2CSSC[C@@H]3NC(=O)[C@H]([C@@H](C)O)NC(=O)CNC(=O)CNC(=O)[C@H](C(C)C)NC(=O)[C@@H]4CSSC[C@H](NC(=O)[C@H]([C@@H](C)O)NC(=O)[C@H](CSSC[C@H](NC(=O)[C@H](C(C)C)NC(=O)[C@@H]5CCCN5C1=O)C(=O)NCC(=O)N[C@@H](CCC(=O)O)C(=O)N[C@@H]([C@@H](C)O)C(=O)N4)NC(=O)CNC(=O)[C@@H]1CCCN1C(=O)[C@H]([C@@H](C)O)NC(=O)[C@H](CC(N)=O)NC3=O)C(=O)N[C@@H](CO)C(=O)N[C@@H](Cc1c[nH]c3ccccc13)C(=O)N1CCC[C@H]1C(=O)N[C@@H](C(C)C)C(=O)N2`, the CC50 at 24 h was 2310 nM.

Take `CC[C@H](C)[C@@H]1NC(=O)[C@H](C(C)C)NC(=O)[C@H](CO)NC(=O)[C@H](CO)NC(=O)[C@H](Cc2ccccc2)NC(=O)[C@@H]2CSSC[C@@H](C(=O)N[C@@H](Cc3ccc(O)cc3)C(=O)N[C@@H](CC(N)=O)C(=O)O)NC(=O)[C@H](C(C)C)NC(=O)[C@H](CCCCN)NC(=O)[C@H](CC(N)=O)NC(=O)[C@H](CCCCN)NC(=O)[C@@H]3CSSC[C@H](NC(=O)[C@H](CO)NC(=O)[C@H](CCC(=O)O)NC(=O)CNC(=O)[C@@H](NC(=O)[C@@H]4CCCN4C(=O)[C@@H](NC(=O)[C@H](C)NC(=O)[C@H](C)N)C(C)C)CSSC[C@H](NC(=O)CNC1=O)C(=O)N[C@@H](CO)C(=O)N3)C(=O)N[C@@H](C(C)C)C(=O)N[C@@H](Cc1c[nH]c3ccccc13)C(=O)N[C@@H]([C@@H](C)CC)C(=O)N1CCC[C@H]1C(=O)N2` (H-AAVPCGESCVWIPCFSSVIGCSCKNKVCYN-OH; disulfide 5-21, 9-23, 14-28): the CC50 at 24 h came out at 160 nM.

Take `CC(C)[C@H](NC(=O)[C@@H]1CCCN1C(=O)[C@H](C)NC(=O)CN)C(=O)N[C@H]1CSSC[C@@H]2NC(=O)CNC(=O)[C@@H]3CCCN3C(=O)[C@H]([C@@H](C)O)NC(=O)[C@H](CC(N)=O)NC(=O)[C@@H]3CSSC[C@@H](C(=O)N[C@@H](CO)C(=O)N[C@@H](CCCCN)C(=O)N[C@@H](CC(N)=O)C(=O)O)NC(=O)[C@H](C(C)C)NC(=O)[C@@H]4CCCN4C(=O)[C@H](Cc4c[nH]c5ccccc45)NC(=O)[C@@H]4CCCN4C(=O)[C@H](CC(=O)O)NC(=O)[C@H](CSSC[C@H](NC(=O)[C@H]([C@@H](C)O)NC(=O)[C@H](CCC(=O)O)NC(=O)CNC1=O)C(=O)N[C@@H](Cc1ccccc1)C(=O)NCC(=O)NCC(=O)N[C@@H]([C@@H](C)O)C(=O)N3)NC(=O)[C@H]([C@@H](C)O)NC2=O` (H-GAPVCGETCFGGTCNTPGCTCDPWPVCSKN-OH; disulfide 5-19, 9-21, 14-27): the CC50 at 24 h stood at 7610 nM.

In the case of `CC[C@H](C)[C@@H]1NC(=O)[C@@H]2CSSC[C@@H](C(=O)N[C@@H](Cc3ccc(O)cc3)C(=O)N[C@@H](CCCCN)C(=O)N[C@@H](CC(N)=O)C(=O)O)NC(=O)[C@H](C(C)C)NC(=O)[C@H](CCCCN)NC(=O)[C@H](CO)NC(=O)[C@H](CCCCN)NC(=O)[C@@H]3CSSC[C@H](NC(=O)[C@H](CO)NC(=O)[C@H](CCC(=O)O)NC(=O)CNC(=O)[C@@H](NC(=O)[C@@H]4CCCN4C(=O)[C@H](CC(C)C)NC(=O)[C@@H](NC(=O)CN)[C@@H](C)O)CSSC[C@H](NC(=O)CNC(=O)[C@H](C(C)C)NC(=O)[C@H](C(C)C)NC(=O)[C@H](CO)NC(=O)[C@H](CO)NC1=O)C(=O)N[C@@H](CO)C(=O)N3)C(=O)N[C@@H](C(C)C)C(=O)N[C@@H](Cc1c[nH]c3ccccc13)C(=O)N[C@@H]([C@@H](C)CC)C(=O)N1CCC[C@H]1C(=O)N2` (H-GTLPCGESCVWIPCISSVVGCSCKSKVCYKN-OH; disulfide 5-21, 9-23, 14-28), the CC50 at 24 h is 110 nM.

For the origin of these results see ChEMBL document CHEMBL6120934, “Isolation and Characterization of Insecticidal Cyclotides from Viola communis” (J Nat Prod, 2025).
